Literature values, collected in US20220211620A1, “Pain Relieving Spray” (Animal Ethics Pty Ltd, priority 2019, published 2022).

Conditions: up to about; depending on the method of administration

For CCCCN1CCCCC1C(=O)Nc1c(C)cccc1C (stereo not shown) [bupivacaine], the “duration of anaesthesia typically provided” value is listed as 6 to 12 h.
